{"source": "patent US7888464B2", "about": "“Hepatitis C virus inhibitors” (Bristol-Myers Squibb Company, priority 2006, dated 2011)", "key": {"[1]": {"test_system": "HCV replicon (strain 1b) in HUH-7 cells", "assay": "HCV replicon FRET assay", "assay_type": "cell-based", "conditions": "Hepatitis C virus", "source_text": "An HCV replicon whole cell system was established as described by Lohmann V, Korner F, Koch J, Herian U, Theilmann L, Bartenschlager R., Science 285(5424): 110-3 (1999). This system enabled us to evaluate the effects of our HCV Protease compounds on HCV RNA replication. Briefly, using the HCV strain 1b sequence described in the Lohmann paper (Assession number: AJ238799), an HCV cDNA was synthesized by Operon Technologies, Inc. (Alameda, Calif.), and the full-length replicon was then assembled in plasmid pGem9zf(+) (Promega, Madison, Wis.) using standard molecular biology techniques. The replicon consists of (i) the HCV 5′ UTR fused to the first 12 amino acids of the capsid protein, (ii) the neomycin phosphotransferase gene (neo), (iii) the IRES from encephalomyocarditis virus (EMCV), and (iv) HCV NS3 to NS5B genes and the HCV 3′ UTR. Plasmid DNAs were linearized with ScaI and RNA transcripts were synthesized in vitro using the T7 MegaScript transcription kit (Ambion, Austin, Tex.) according to manufacturer's directions. In vitro transcripts of the cDNA were transfected into the human hepatoma cell line, HUH-7. […] Resulting cell lines were characterized for positive and negative strand RNA production and protein production over time.\nThe HCV replicon FRET assay was developed to monitor the inhibitory effects of compounds described in the disclosure on HCV viral replication. HUH-7 cells, constitutively expressing the HCV replicon, were grown in Dulbecco's Modified Eagle Media (DMEM) (Gibco-BRL) containing 10% Fetal calf serum (FCS) (Sigma) and 1 mg/ml G418 (Gibco-BRL). Cells were seeded the night before (1.5×10^4 cells/well) in 96-well tissue-culture sterile plates. Compound and no compound controls were prepared in DMEM containing 4% FCS, 1:100 Penicillin/Streptomysin (Gibco-BRL), 1:100 L-glutamine and 5% DMSO in the dilution plate (0.5% DMSO final concentration in the assay). Compound/DMSO mixes were added to the cells and incubated for 4 days at 37° C. After 4 days, cells were first assessed for cytotoxicity using alamar Blue (Trek Diagnotstic Systems) for a CC50 reading. The toxicity of compound (CC50) was determined by adding 1/10th volume of alamar Blue to the media incubating the cells. After 4 h, the fluorescence signal from each well was read, with an excitation wavelength at 530 nm and an emission wavelength of 580 nm, using the Cytofluor Series 4000 (Perspective Biosystems). Plates were then rinsed thoroughly with Phosphate-Buffered Saline (PBS) (3 times 150 μl). The cells were lysed with 25 μl of a lysis assay reagent containing an HCV protease substrate (5× cell Luciferase cell culture lysis reagent (Promega #E153A) diluted to 1× with distilled water, NaCl added to 150 mM final, the FRET peptide substrate (as described for the enzyme assay above) diluted to 10 μM final from a 2 mM stock in 100% DMSO. The plate was then placed into the Cytofluor 4000 instrument which had been set to 340 nm excitation/490 nm emission, automatic mode for 21 cycles and the plate read in a kinetic mode. EC50 determinations were carried out as described for the IC50 determinations."}, "[2]": {"biological_target": "T1, HCV NS3/4A protease complex, BMS strain (genotype 1a) (UniProt P27958, species not given/STRAIN_BMS)", "T1 construct": "\"DNA encoding the recombinant HCV NS3/4A protease complex (amino acids 1027 to 1711) for these strains\" (said of H77 and J4L6S, not expressly of BMS); given for the H77/J4L6S constructs only", "T1 sequence (P27958 1027-1657, stated change not applied, one chain of several)": "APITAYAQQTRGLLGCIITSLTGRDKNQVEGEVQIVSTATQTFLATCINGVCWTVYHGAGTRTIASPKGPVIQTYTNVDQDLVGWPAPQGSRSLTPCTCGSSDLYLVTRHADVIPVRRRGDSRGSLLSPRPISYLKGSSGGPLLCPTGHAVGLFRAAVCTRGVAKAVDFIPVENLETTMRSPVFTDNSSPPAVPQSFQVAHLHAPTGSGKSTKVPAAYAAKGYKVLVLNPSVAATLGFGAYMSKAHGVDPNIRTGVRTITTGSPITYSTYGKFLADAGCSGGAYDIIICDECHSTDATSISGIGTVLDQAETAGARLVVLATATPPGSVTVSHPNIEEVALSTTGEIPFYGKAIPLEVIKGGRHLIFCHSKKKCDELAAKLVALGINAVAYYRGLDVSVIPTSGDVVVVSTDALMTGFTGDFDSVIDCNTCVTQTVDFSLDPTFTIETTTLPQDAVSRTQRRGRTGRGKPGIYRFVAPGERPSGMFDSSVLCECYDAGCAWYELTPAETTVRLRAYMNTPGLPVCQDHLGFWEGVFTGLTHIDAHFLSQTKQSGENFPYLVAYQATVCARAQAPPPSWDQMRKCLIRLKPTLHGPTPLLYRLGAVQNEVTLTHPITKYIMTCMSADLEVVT", "assay": "FRET peptide assay to monitor HCV NS3/4A proteolytic activity (BMS strain)", "assay_type": "biochemical", "conditions": "NS3/4A BMS strain, read-out: HCV Protease (IC50)", "source_text": "HCV NS3 protease complexes, derived from the BMS strain, H77 strain or J4L6S strain, were generated, as described below. These purified recombinant proteins were generated for use in a homogeneous assay (see below) to provide an indication of how effective compounds of the present disclosure would be in inhibiting HCV NS3 proteolytic activity.\nSerum from an HCV-infected patient was obtained from Dr. T. Wright, San Francisco Hospital. An engineered full-length cDNA (compliment deoxyribonucleic acid) template of the HCV genome (BMS strain) was constructed from DNA fragments obtained by reverse transcription-PCR(RT-PCR) of serum RNA (ribonucleic acid) and using primers selected on the basis of homology between other genotype la strains. From the determination of the entire genome sequence, a genotype la was assigned to the HCV isolate according to the classification of Simmonds et al. (See P Simmonds, K A Rose, S Graham, S W Chan, F McOmish, B C Dow, E A Follett, P L Yap and H Marsden, J. Clin. Microbiol., 31(6), 1493-1503 (1993)). […] The infectious clones, H77 (1a genotype) and J4L6S (1b genotype) were obtained from R. Purcell (NIH) and the sequences are published in Genbank (AAB67036, see Yanagi, M., Purcell, R. H., Emerson, S. U. and Bukh, J. Proc. Natl. Acad. Sci. U.S.A. 94(16), 8738-8743 (1997); AF054247, see Yanagi, M., St Claire, M., Shapiro, M., Emerson, S. U., Purcell, R. H. and Bukh, J, Virology 244 (1), 161-172. (1998)).\nThe H77 and J4L6S strains were used for production of recombinant NS3/4A protease complexes. DNA encoding the recombinant HCV NS3/4A protease complex (amino acids 1027 to 1711) for these strains were manipulated as described by P. Gallinari et al. (see Gallinari P, Paolini C, Brennan D, Nardi C, Steinkuhler C, De Francesco R. Biochemistry. 38(17):5620-32, (1999)). Briefly, a three-lysine solubilizing tail was added at the 3′-end of the NS4A coding region. The cysteine in the P1 position of the NS4A-NS4B cleavage site (amino acid 1711) was changed to a glycine to avoid the proteolytic cleavage of the lysine tag. Furthermore, a cysteine to serine mutation was introduced by PCR at amino acid position 1454 to prevent the autolytic cleavage in the NS3 helicase domain. The variant DNA fragment was cloned in the pET21b bacterial expression vector (Novagen) and the NS3/4A complex was expressed in Escherichia. coli strain BL21 (DE3) (Invitrogen) following the protocol described by P. Gallinari et al. (see Gallinari P, Brennan D, Nardi C, Brunetti M, Tomei L, Steinkuhler C, De Francesco R., J. Virol. 72(8):6758-69 (1998)) with modifications. Briefly, the NS3/4A protease complex expression was induced with 0.5 millimolar (mM) Isopropyl β-D-1-thiogalactopyranoside (IPTG) for 22 hours (h) at 20° C. A typical fermentation (1 Liter (L)) yielded approximately 10 grams (g) of wet cell paste. The cells were resuspended in lysis buffer (10 mL/g) consisting of 25 mM N-(2-Hydroxyethyl)piperazine-N′-(2-Ethane Sulfonic acid) (HEPES), pH 7.5, 20% glycerol, 500 mM Sodium Chloride (NaCl), 0.5% Triton X-100, 1 microgram/milliliter (“μg/mL”) lysozyme, 5 mM Magnesium Chloride (MgCl2), 1 μg/ml DnaseI, 5 mM β-Mercaptoethanol (βME), Protease inhibitor-Ethylenediamine Tetraacetic acid (EDTA) free (Roche), homogenized and incubated for 20 minutes (min) at 4° C. The homogenate was sonicated and clarified by ultra-centrifugation at 235000 g for 1 hour (h) at 4° C. Imidazole was added to the supernatant to a final concentration of 15 mM and the pH adjusted to 8.0. The crude protein extract was loaded on a Nickel-Nitrilotriacetic acid (Ni-NTA) column pre-equilibrated with buffer B (25 mM HEPES, pH 8.0, 20% glycerol, 500 mM NaCl, 0.5% Triton X-100, 15 mM imidazole, 5 mM βME). The sample was loaded at a flow rate of 1 mL/min. The column was washed with 15 column volumes of buffer C (same as buffer B except with 0.2% Triton X-100). The protein was eluted with 5 column volumes of buffer D (same as buffer C except with 200 mM Imidazole). […]"}, "[3]": {"conditions": "Huh-7, read-out: HCV Pro Replicon (EC50)"}, "[4]": {"conditions": "activity range symbols of Table 2"}, "[5]": {"conditions": "Huh-7, HCV replicon, numeric cells of Table 2, read-out: HCV Pro Replicon (EC50)"}}, "note": "Like-named read-outs stand apart in the source and are kept apart here."}
{"compound": "C=C[C@@H]1C[C@]1(NC(=O)[C@@H]1C[C@@](OC)(c2ccc(-c3ccccc3)cc2)CN1C(=O)[C@@H](NC(=O)NC12CC3CC(CC(C3)C1)C2)C(C)(C)C)C(=O)NS(=O)(=O)C1CC1", "note": "[Cmpd 205, (2S,4R)-1-[(S)-2-(3-Adamantan-1-yl-ureido)-3,3-dimethyl-butyryl]-4-biphenyl-4-yl-4-methoxy-pyrrolidine-2-carboxylic acid ((1R,2S)-1-cyclopropanesulfonylaminocarbonyl-2-vinyl-cyclopropyl)-amide]", "values": [{"measurement": "EC50", "setting": "[1]; [3]", "result": "1 to 50", "unit": "nM"}, {"measurement": "IC50", "setting": "[2]; [4]", "result": "1 to 50", "unit": "nM"}]}
{"compound": "C=C[C@@H]1C[C@]1(NC(=O)[C@@H]1C[C@@](OC)(c2ccc(-c3ccccc3)cc2)CN1C(=O)[C@@H](NC(=O)OC(C)(C)C)C(C)(C)C)C(=O)NS(=O)(=O)C1CC1", "note": "[Cmpd 106, tert-butyl (S)-1-((2S,4R)-4-(biphenyl-4-yl)-2-((1R,2S)-1-(cyclopropylsulfonylcarbamoyl)-2-vinylcyclopropylcarbamoyl)-4-methoxypyrrolidin-1-yl)-3,3-dimethyl-1-oxobutan-2-ylcarbamate]", "values": [{"measurement": "EC50", "setting": "[1]; [5]", "result": 11, "unit": "nM"}, {"measurement": "IC50", "setting": "[2]; numeric cells of Table 2", "result": 1, "unit": "nM"}]}
{"compound": "C=C[C@@H]1C[C@]1(NC(=O)[C@@H]1C[C@@](OC)(c2ccc(-c3ccccc3)cc2)CN1C(=O)[C@H](Nc1cccc(OC)c1)C(C)(C)C)C(=O)NS(=O)(=O)C1CC1", "note": "[Cmpd 208, (2S,4R)-4-Biphenyl-4-yl-4-methoxy-1-[(R)-2-(3-methoxy-phenylamino)-3,3-dimethyl-butyryl]-pyrrolidine-2-carboxylic acid ((1R,2S)-1-cyclopropanesulfonylaminocarbonyl-2-vinyl-cyclopropyl)-amide]", "values": [{"measurement": "EC50", "setting": "[1]; [5]", "result": 1300, "unit": "nM"}, {"measurement": "IC50", "setting": "[2]; numeric cells of Table 2", "result": 315, "unit": "nM"}]}
{"compound": "CC[C@@H]1C[C@]1(NC(=O)[C@@H]1C[C@@](OC)(c2ccc(-c3ccccc3)cc2)CN1C(=O)[C@@H](NC(=O)OC(C)(C)C)C(C)(C)C)C(=O)NS(=O)(=O)C1CC1", "note": "[Cmpd 110]", "values": [{"measurement": "EC50", "setting": "[1]; [3]", "result": "50 to 500", "unit": "nM"}, {"measurement": "IC50", "setting": "[2]; [4]", "result": "1 to 50", "unit": "nM"}]}
{"compound": "C=C[C@@H]1C[C@]1(NC(=O)[C@@H]1C[C@@](OC)(c2ccc(-c3ccccc3)cc2)CN1C(=O)[C@@H](NC(=O)OC(C)(C)C(F)(F)F)C(C)(C)C)C(=O)NS(=O)(=O)C1CC1", "note": "[Cmpd 200, {(S)-1-[(2S,4R)-4-Biphenyl-4-yl-2-((S)-(1R,2S)-1-cyclopropanesulfonylaminocarbonyl-2-vinyl-cyclopropylcarbamoyl)-4-methoxy-pyrrolidine-1-carbonyl]-2,2-dimethyl-propyl}-carbamic acid 2,2,2-trifluoro-1,1-dimethyl-ethyl ester]", "values": [{"measurement": "EC50", "setting": "[1]; [3]", "result": "1 to 50", "unit": "nM"}, {"measurement": "IC50", "setting": "[2]; [4]", "result": "1 to 50", "unit": "nM"}]}
{"compound": "C=C[C@@H]1C[C@]1(NC(=O)[C@@H]1C[C@@](OC)(c2ccc(-c3ccccc3)cc2)CN1C(=O)[C@@H](Nc1cccc(OC)c1)C(C)(C)C)C(=O)NS(=O)(=O)C1CC1", "note": "[Cmpd 207, (2S,4R)-4-Biphenyl-4-yl-4-methoxy-1-[(S)-2-(3-methoxy-phenylamino)-3,3-dimethyl-butyryl]-pyrrolidine-2-carboxylic acid ((1R,2S)-1-cyclopropanesulfonylaminocarbonyl-2-vinyl-cyclopropyl)-amide]", "values": [{"measurement": "EC50", "setting": "[1]; [3]", "result": "1 to 50", "unit": "nM"}, {"measurement": "IC50", "setting": "[2]; [4]", "result": "1 to 50", "unit": "nM"}]}
{"compound": "C=C[C@@H]1C[C@]1(NC(=O)[C@@H]1C[C@@](OC)(c2ccc(-c3ccccc3)cc2)CN1C(=O)[C@@H](NC(=O)OC(C)(C)C)C(C)C)C(=O)NS(=O)(=O)C1CC1", "note": "[Cmpd 201, {(S)-1-[(2S,4R)-4-Biphenyl-4-yl-2-((S)-(1R,2S)-1-cyclopropanesulfonylaminocarbonyl-2-vinyl-cyclopropylcarbamoyl)-4-methoxy-pyrrolidine-1-carbonyl]-2-methyl-propyl}-carbamic acid tert-butyl ester]", "values": [{"measurement": "EC50", "setting": "[1]; [3]", "result": "50 to 500", "unit": "nM"}, {"measurement": "IC50", "setting": "[2]; [4]", "result": "1 to 50", "unit": "nM"}]}
{"compound": "C=C[C@@H]1C[C@]1(NC(=O)[C@@H]1C[C@@](OC)(c2ccc(-c3ccccc3)cc2)CN1C(=O)[C@H](Cc1ccc(C(C)(C)C)cc1)NC(=O)OC(C)(C)C)C(=O)NS(=O)(=O)C1CC1", "note": "[Cmpd 211]", "values": [{"measurement": "IC50", "setting": "[2]; numeric cells of Table 2", "result": 1600, "unit": "nM"}]}
